molecular target: T1, SORT (Homo sapiens, UniProt Q99523); test: progranulin (PGRN) peptide/SORT homogenous time-resolved fluorescence (HTRF) assay; assay type: binding; details: SORT 1 nM, biotinylated 18-mer PGRN peptide 4 nM, TR-FRET
T1 sequence (Q99523 78-831): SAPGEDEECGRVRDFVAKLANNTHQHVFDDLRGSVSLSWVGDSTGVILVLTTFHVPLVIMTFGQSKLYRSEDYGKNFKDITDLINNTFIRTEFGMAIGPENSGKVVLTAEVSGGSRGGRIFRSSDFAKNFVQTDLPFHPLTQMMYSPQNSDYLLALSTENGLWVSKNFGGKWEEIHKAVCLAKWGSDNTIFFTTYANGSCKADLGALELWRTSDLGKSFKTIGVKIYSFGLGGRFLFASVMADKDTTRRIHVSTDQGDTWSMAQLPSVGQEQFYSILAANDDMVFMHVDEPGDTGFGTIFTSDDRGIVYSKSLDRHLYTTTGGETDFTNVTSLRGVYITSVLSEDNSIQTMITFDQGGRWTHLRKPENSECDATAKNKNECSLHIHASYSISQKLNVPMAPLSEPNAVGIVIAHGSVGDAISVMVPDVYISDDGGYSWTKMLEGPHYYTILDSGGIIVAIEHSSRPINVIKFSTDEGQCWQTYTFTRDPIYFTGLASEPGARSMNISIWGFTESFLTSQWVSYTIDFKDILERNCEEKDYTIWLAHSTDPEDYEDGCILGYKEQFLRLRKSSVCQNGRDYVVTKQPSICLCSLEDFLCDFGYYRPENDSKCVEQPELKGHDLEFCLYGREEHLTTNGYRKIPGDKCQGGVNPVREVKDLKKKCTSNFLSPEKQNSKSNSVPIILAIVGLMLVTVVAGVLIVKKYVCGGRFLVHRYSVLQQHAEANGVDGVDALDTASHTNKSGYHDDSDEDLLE
Method: To determine the IC50s of compounds bound to SORT and thus preventing its interaction with the biotinylated 18-mer PGRN peptide a time-resolved fluorescence resonance energy transfer (TR-FRET) format was used. All test compounds were dissolved in DMSO; the final concentration of DMSO in the reaction buffer was 1%. Compounds were prepared in a ten-point, three-fold serial dilution scheme using an acoustic dispenser. A solution of SORT protein in assay buffer (10 mM HEPES, pH 7.3, 150 mM NaCl, 0.005% Brij-35 and 0.01% BSA, final concentration of SORT 1 nM) was added to each well and pre-incubated with compounds or DMSO vehicle at ambient temperature for 10 min with gentle shaking. Next, biotinylated 18-mer PGRN peptide was added to each well (final concentration 4 nM) and the binding reactions were incubated at ambient temperature for 30 min with gentle shaking. Solutions of SA/Dylight in assay buffer were added to each well, immediately followed by addition of Eu/anti-His in assay buffer. […] Data were analyzed using ABase and a 4-parameter logistic fit based on the Levenberg-Marquardt algorithm.^9

| Structure (SMILES) | IC50 [µM] |
| --- | --- |
| CC(C)(C)CC[C@H](NC(=O)c1cc(Cl)cc(Cl)c1)C(=O)O (single isomer, unassigned) [Example 42] | 0.17 |
| CC(C)(C)CC[C@H](NC(=O)c1cc(Cl)c[nH]1)C(=O)O (single isomer, unassigned) [Example 43] | 0.09 |
| CC(C)(C)CC[C@H](NC(=O)c1ccc(Oc2ccccc2)nc1)C(=O)O (single isomer, unassigned) [Example 44] | 0.02 |
| CC(C)(C)c1cc(C(=O)O)n(Cc2ccccc2)n1 [Example 31, 1-benzyl-3-tert-butyl-1H-pyrazole-5-carboxylic acid] | 2 |
| CC(C)(C)c1cc(C(=O)O)n(Cc2cc(Cl)cc(Cl)c2)n1 [Example 32, 3-tert-butyl-1-[(3,5-dichlorophenyl)methyl]-1H-pyrazole-5-carboxylic acid] | 2.1 |
| CC(C)(C)c1cc(C(=O)O)n(Cc2ccc(-n3cccn3)nc2)n1 [Example 33, 3-tert-butyl-1-{[6-(1H-pyrazol-1-yl)pyridin-3-yl]methyl}-1H-pyrazole-5-carboxylic acid] | 3 |
| CC(C)(C)c1cc(C(=O)O)n(Cc2ccc(Oc3ccccc3)nc2)n1 [Example 34, 3-tert-butyl-1-[(6-phenoxypyridin-3-yl)methyl]-1H-pyrazole-5-carboxylic acid] | 2.1 |
| Cn1nc(C(C)(C)C)cc1C(=O)O [Example 35, 3-tert-butyl-1-methyl-1H-pyrazole-5-carboxylic acid] | 8.3 |
| CC(C)(C)c1cc(C(=O)O)n(-c2ccccc2)n1 [Example 36, 3-tert-butyl-1-phenyl-1H-pyrazole-5-carboxylic acid] | 7.6 |
| CC(C)(C)c1cc(C(=O)O)n(CCc2ccccc2)n1 [Example 37, 3-tert-butyl-1-(2-phenylethyl)-1H-pyrazole-5-carboxylic acid] | 5.3 |
| CC(C)(C)c1cc(C(=O)O)n(Cc2nnc(-c3ccccc3)o2)n1 [Example 38, 3-tert-butyl-1-[(5-phenyl-1,3,4-oxadiazol-2-yl)methyl]-1H-pyrazole-5-carboxylic acid] | 0.49 |
| CC(C)(C)Cc1cc(C(=O)O)n(Cc2ccccc2)n1 [Example 39, 1-benzyl-3-(2,2-dimethylpropyl)-1H-pyrazole-5-carboxylic acid] | 6.6 |
| CC(C)c1cc(C(=O)O)n(CCc2ccccc2)n1 [Example 40, 1-(2-phenylethyl)-3-(propan-2-yl)-1H-pyrazole-5-carboxylic acid] | > 67 |
| CC(C)(C)CCc1cc(C(=O)O)n(Cc2ccccc2)n1 [Example 41, 1-benzyl-3-(3,3-dimethylbutyl)-1H-pyrazole-5-carboxylic acid] | > 67 |
| CC(C)C[C@H](NC(=O)c1ccc(Cl)c(Cl)c1)C(=O)O [Example 45, (2S)-2-[(3,4-dichlorophenyl)formamido]-4-methylpentanoic acid] | 4.3 |
| CC(C)C[C@H](NC(=O)c1cc(Cl)cc(Cl)c1)C(=O)O [Example 46, (2S)-2-[(3,5-dichlorophenyl)formamido]-4-methylpentanoic acid] | 2.7 |
| CC(C)C[C@H](NC(=O)c1cccc(Cl)c1)C(=O)O [Example 47, (2S)-2-[(3-chlorophenyl)formamido]-4-methylpentanoic acid] | 4.5 |

| Structure (SMILES) | IC50 [µM] |
| --- | --- |
| COc1cccc(C(=O)N[C@@H](CC(C)C)C(=O)O)c1 [Example 48, (2S)-2-[(3-methoxyphenyl)formamido]-4-methylpentanoic acid] | 6.8 |
| CC(C)C[C@H](NC(=O)C(C)(C)Cc1ccc(Cl)cc1)C(=O)O [Example 49, (2S)-2-{2-[(4-chlorophenyl)methyl]-2-methylpropanamido}-4-methylpentanoic acid] | 6.8 |
| CC(C)C[C@H](NC(=O)c1cnn(C)c1)C(=O)O [Example 50, (2S)-4-methyl-2-[(1-methyl-1H-pyrazol-4-yl)formamido]pentanoic acid] | 5.3 |
| CC(C)C[C@H](NC(=O)c1cnc2ccccc2n1)C(=O)O [Example 51, (2S)-4-methyl-2-[(quinoxalin-2-yl)formamido]pentanoic acid] | 6.3 |
| CC(C)C[C@H](NC(=O)C1CCCC1)C(=O)O [Example 52, (2S)-2-(cyclopentylformamido)-4-methylpentanoic acid] | 25.3 |
| CC(C)C[C@H](NC(=O)C1CN(Cc2cc(Cl)cc(Cl)c2)CCO1)C(=O)O (stereo partly drawn) [Example 53, (2S)-2-({4-[(3,5-dichlorophenyl)methyl]morpholin-2-yl}formamido)-4-methylpentanoic acid] | 14.4 |
| C=C(C)C[C@H](NC(=O)c1cc(Cl)cc(Cl)c1)C(=O)O [Example 54, (2S)-2-[(3,5-dichlorophenyl)formamido]-4-methylpent-4-enoic acid] | 17.1 |
| O=C(N[C@@H](CC1CC1)C(=O)O)c1cc(Cl)cc(Cl)c1 [Example 55, (2S)-3-cyclopropyl-2-[(3,5-dichlorophenyl)formamido]propanoic acid] | 10.7 |
| O=C(N[C@@H](CC1CCCCC1)C(=O)O)c1cc(Cl)cc(Cl)c1 [Example 56, (2S)-3-cyclohexyl-2-[(3,5-dichlorophenyl)formamido]propanoic acid] | 2.3 |
| CC(C)(C)C[C@H](NC(=O)c1cc(Cl)cc(Cl)c1)C(=O)O [Example 57, (2S)-2-[(3,5-dichlorophenyl)formamido]-4,4-dimethylpentanoic acid] | 0.35 |
| O=C(N[C@@H](CC12CC(C1)C2)C(=O)O)c1cc(Cl)cc(Cl)c1 [Example 58, (2S)-3-{bicyclo[1.1.1]pentan-1-yl}-2-[(3,5-dichlorophenyl)formamido]propanoic acid] | 18 |
| O=C(N[C@@H](Cc1ccccc1)C(=O)O)c1cc(Cl)cc(Cl)c1 [Example 59, (2S)-2-[(3,5-dichlorophenyl)formamido]-3-phenylpropanoic acid] | > 67 |
| CC(C)(C)OC[C@H](NC(=O)c1cc(Cl)cc(Cl)c1)C(=O)O [Example 60, (2S)-3-(tert-butoxy)-2-[(3,5-dichlorophenyl)formamido]propanoic acid] | 1.5 |
| CC(OC(C)(C)C)[C@H](NC(=O)c1cc(Cl)cc(Cl)c1)C(=O)O (stereo partly drawn) [Example 61, (2S)-3-(tert-butoxy)-2-[(3,5-dichlorophenyl)formamido]butanoic acid] | > 67 |
| CC(C)(C)CC(NC(=O)c1cc(Cl)cc(Cl)c1)c1nn[nH]n1 (centres unmarked) [Example 62, 3,5-dichloro-N-[3,3-dimethyl-1-(2H-1,2,3,4-tetrazol-5-yl)butyl]benzamide] | 6.9 |
| CC(C)C[C@H](NC(c1cc(Cl)cc(Cl)c1)C(F)(F)F)C(=O)O (stereo partly drawn) [Example 63, (2S)-2-{[1-(3,5-dichlorophenyl)-2,2,2-trifluoroethyl]amino}-4-methylpentanoic acid] | 10.8 |
| CC(C)(C)C[C@H](NC(=O)c1ccc(Oc2ccccc2)nc1)C(=O)O [Example 64, (2S)-4,4-dimethyl-2-[(6-phenoxypyridin-3-yl)formamido]pentanoic acid] | 0.065 |

molecular target: T2, hSortilin (Homo sapiens, UniProt Q99523); test: Neurotensin SPA assay with [125I]-Neurotensin; assay type: binding; details: [125I]-Neurotensin; read-out: Observed IC50
T2 sequence (Q99523 78-831): T1 sequence (Q99523 78-831)
Description: All values reported are average of at least 4 determinations.^8

| Structure (SMILES) | IC50 [nM] |
| --- | --- |
| CC(C)(C)CC[C@H](NC(=O)c1ccc(Oc2ccccc2)nc1)C(=O)O (racemic) [*Example 44] | 120 |

same assay, conditions: observed versus expected IC50

| Structure (SMILES) | Fold difference between calculated and expected |
| --- | --- |
| CC(C)(C)CC[C@H](NC(=O)c1ccc(Oc2ccccc2)nc1)C(=O)O (racemic) [*Example 44] | 6 |

test system: not listed separately; test: Poloxamer gelling tests at 20° C. and 37° C.; assay type: physicochemical; details: 14% poloxamer gel, compound at 1 mg/mL
Description: In a preferred embodiment, the sortilin antagonists herein described may be administered in a gel formulation, preferably a Poloxamer 407 gel formulation. Said formulation may comprise the following excipients, reactants and solvents; Poloxamer 407, 5% glucose, Sodium dihydrogenophosphate, Di-sodium hydrogenophosphate, acetonitrile, trifluoroacetic acid and de-ionized water. Preferably, the gel formulation is a 14% poloxamer solution in diluted pH 7.4 phosphate buffer (0.013M) in deionized water. […] (body temperature), see Table 1 below. […] Accordingly, the aforementioned gel formulation is an appropriate vehicle solution to administer said compounds.

| Structure (SMILES) | properties of the poloxamer gel formulation after addition of compound |
| --- | --- |
| Cc1cccc(NC(=O)c2ccc(C(F)(F)F)cc2C(=O)O)n1 [Example 8, 2-[(6-methylpyridin-2-yl)carbamoyl]-5-(trifluoromethyl)benzoic acid] | unaltered |

molecular target: T2, hSortilin; test: not given; details: expected value, compared with the [125I]-Neurotensin SPA result; cited from earlier work

| Structure (SMILES) | IC50 [nM] |
| --- | --- |
| CC(C)(C)CC[C@H](NC(=O)c1ccc(Oc2ccccc2)nc1)C(=O)O (racemic) [*Example 44] | 20 |

— patent US20230374143A1, “A SORTILIN ANTAGONIST FOR USE IN THE PREVENTION OR TREATMENT OF HEARING LOSS” (Insusense ApS, priority 2020, published 2023)
